Test in all cases: DTP human tumour cell line panel, 48 h
Test [1] relates to BT-549.
The test system of test [2] is SW-620.
Test [3] relates to NCI-H460.
For test [4], the system named is UACC-257.
The test system of test [5] is SN12C.
The subject of test [6] is HCT-116.
Test [7] deals with CCRF-CEM.
Test [8] has as its system Malme-3M.
For test [9], the system named is OVCAR-3.
Test [10] has as its system K562.
Test [11] relates to HT-29.
Test [12] concerns OVCAR-4.
The subject of test [13] is A549.
In test [14] the test system is SK-MEL-2.
In test [15] the test system is CAKI-1.
The subject of test [16] is HOP-62.
Test [17] concerns HCC 2998.
Test [18] relates to SF-539.
Test [19] relates to HL-60.

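Interpolation was linear, between the two tested concentrations surrounding the appropriate level; five concentrations were tested over 48 hours in 96-well plates. GI50: concentration for 50% inhibition of growth.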 Activity calls are given as the source filed them. No stated cut-off is given here; in the data, active = GI50 up to about 1.1 µM and inactive = higher.

Usually GI50 stands for the concentration that inhibits growth by half. For `O=c1onc2n1-c1cc(Cl)ccc1C(=S)N1CSCC21` (stereo unspecified), the GI50 in test [1], in test [2], in test [3], in [4], in [5] and in [6] was > 100 µM (inactive) each time. Also, the GI50 is 55.8 µM (inactive) in [7]; > 100 µM (inactive) in [8]; > 100 µM (inactive) in test [9]; 26.7 µM (inactive) in test [10]; > 100 µM (inactive) in test [11]; > 100 µM (inactive) in test [12]. In addition, the GI50 in [13], in test [14], in test [15], in test [16] and in test [17] was > 100 µM (inactive) throughout.
On to `O=c1cc(/C=C/c2ccc(O)c(O)c2)cc(/C=C/c2ccc(O)c(O)c2)o1`, for which the GI50 is 13.9 µM (inactive) in test [1]; 13.6 µM (inactive) in test [2]; 14.3 µM (inactive) in test [3]; 12.5 µM (inactive) in [4]; 9.71 µM (inactive) in [5]; 8.17 µM (inactive) in test [6]. Also, the GI50 is 7.66 µM (inactive) in test [7]; 5.82 µM (inactive) in test [8]; 7.71 µM (inactive) in test [9]; 2.9 µM (inactive) in test [10]; 11.4 µM (inactive) in [11]; 14.3 µM (inactive) in [12]. The GI50 was 12.8 µM (inactive) in [13]; 11.6 µM (inactive) in [14]; 10.9 µM (inactive) in test [15]; 10.5 µM (inactive) in [16]; 6.68 µM (inactive) in [17]; 8.15 µM (inactive) in test [18].
On to `COc1ccc(OC)c(-c2cn3c(n2)sc2ccccc23)c1`, for which the GI50 in [1], in test [2], in [3], in test [4], in [5] and in test [6] was > 100 µM (inactive) throughout. Also, the GI50 in [7] was > 100 µM (inactive); in [19], > 100 µM (inactive); in test [8], > 100 µM (inactive); in test [9] it was > 100 µM (inactive); in test [10] it was > 100 µM (inactive); in [11], 8.26 µM (inactive). In addition, the GI50 in test [12], in test [13], in test [14], in [15], in [16] and in [18] was > 100 µM (inactive) in each case.
In the case of `Clc1ccc(C2Nc3ccccc3C3=NCCN32)cc1` (stereo unspecified), the GI50 in test [1] was 24.3 µM (inactive); in test [2], 24.5 µM (inactive); in test [3] it was 16.3 µM (inactive); in [4], 17.5 µM (inactive); in test [5], 29.8 µM (inactive); in test [6] it was 12.4 µM (inactive). The GI50 is 28.4 µM (inactive) in test [7]; 22.1 µM (inactive) in test [19]; 15.4 µM (inactive) in [8]; 33.5 µM (inactive) in test [9]; 15.7 µM (inactive) in test [10]; 11.4 µM (inactive) in test [11]. In addition, the GI50 was 30.7 µM (inactive) in [12]; 32.3 µM (inactive) in [13]; 19.1 µM (inactive) in test [14]; 26.5 µM (inactive) in test [15]; 23.4 µM (inactive) in test [16]; 15.6 µM (inactive) in test [18].
Take `CN(C)CS/C(N)=N\C(O)C(Cl)(Cl)Cl` (stereo unspecified): the GI50 in [1], in test [2], in test [3], in test [4], in [5] and in test [6] was > 100 µM (inactive) in each case. Besides, the GI50 in [7] is 51.6 µM (inactive); in test [8], > 100 µM (inactive); in test [9], > 100 µM (inactive); in test [10] it was > 100 µM (inactive); in [11] it was > 100 µM (inactive); in test [12] it was > 100 µM (inactive). Moreover, the GI50 in test [13], in [14], in [15], in [16] and in test [17] was > 100 µM (inactive) in each case.
Turning to `COc1ccc(Nc2nc(N)c(C(=O)c3ccc(Cl)cc3)s2)cc1`, the GI50 in test [1] was < 0.0135 µM (active); in test [2], < 0.01 µM (active); in [3], < 0.01 µM (active); in test [4], 42.9 µM (inactive); in test [5], 0.307 µM (active); in test [6] it was < 0.01 µM (active). In addition, the GI50 in [7] was < 0.01 µM (active); in test [19] it was < 0.01 µM (active); in [9], < 0.01 µM (active); in test [10], < 0.01 µM (active); in test [11], < 0.0108 µM (active); in test [12], 0.121 µM (active). For the same molecule, the GI50 in test [13] is < 0.0224 µM (active); in test [14] it was < 0.01 µM (active); in [15] it was < 0.01 µM (active); in test [16], < 0.01 µM (active); in test [17], 0.0357 µM (active); in [18], < 0.01 µM (active).
On to `CC#CC(O)(C(=O)OC1CC2CCC(C1)N2C)C1CCCC1` (stereo unspecified), for which the GI50 in test [1], in test [2], in test [3], in [4], in test [5] and in [6] was > 100 µM (inactive) throughout. Further, the GI50 in test [7], in test [19], in [9], in test [10], in test [11] and in test [12] was > 100 µM (inactive) throughout. Besides, the GI50 in test [13], in [14], in test [15], in test [16], in [17] and in [18] was > 100 µM (inactive) in each case.
For the molecule `O=C1CC(O)c2c(Cl)sc(Cl)c21` (stereo unspecified), the GI50 in [1] was 16 µM (inactive); in [2], 3.13 µM (inactive); in test [3], 22.8 µM (inactive); in [4] it was 9.98 µM (inactive); in test [5], 11.3 µM (inactive); in test [6] it was 3.83 µM (inactive). The GI50 in test [7] is 1.7 µM (inactive); in test [9], 5.4 µM (inactive); in test [10], 3.37 µM (inactive); in test [11], 2.88 µM (inactive); in test [12] it was 18.9 µM (inactive); in test [13] it was 16.4 µM (inactive). For the same molecule, the GI50 in test [14] is 13.5 µM (inactive); in test [15], 3.3 µM (inactive); in test [16] it was 14.1 µM (inactive); in [17] it was 27.2 µM (inactive); in test [18] it was 9.04 µM (inactive).
For the molecule `CC(=O)O[C@H]1C[C@](C)(O)[C@@]23CC([C@@H](OC(=O)C(C)(C)O)[C@@H](OC(C)=O)C2(COC(=O)c2ccccc2)[C@H]1OC(C)=O)C(C)(C)O3` (stereo partly specified), the GI50 in test [1], in test [2], in test [3], in test [4], in test [5] and in test [6] was > 100 µM (inactive) throughout. In addition, the GI50 in test [7] is 41.1 µM (inactive); in test [8], > 100 µM (inactive); in test [9], 78.9 µM (inactive); in test [10] it was 50 µM (inactive); in test [11] it was > 100 µM (inactive); in [12], > 100 µM (inactive). The GI50 in test [13] is 47.8 µM (inactive); in test [14], 86.5 µM (inactive); in [15], > 100 µM (inactive); in [16], > 100 µM (inactive); in [17], > 100 µM (inactive); in test [18], > 100 µM (inactive).
Take `CCCCI(O)OS(=O)(=O)c1ccc(C)cc1`: the GI50 was > 100 µM (inactive) in test [1]; > 100 µM (inactive) in test [2]; > 100 µM (inactive) in test [4]; > 100 µM (inactive) in test [5]; > 100 µM (inactive) in test [6]; 53.5 µM (inactive) in test [7]. Further, the GI50 was > 100 µM (inactive) in [9]; 67.8 µM (inactive) in test [10]; > 100 µM (inactive) in [11]; > 100 µM (inactive) in test [12]; 66.2 µM (inactive) in test [13]; > 100 µM (inactive) in [14]. In addition, the GI50 in [15], in test [16], in test [17] and in test [18] was > 100 µM (inactive) in each case.
Turning to `CCNC(=S)NNC(=O)c1csc(NC(=S)NC2CCCCC2)n1`, the GI50 in test [1] is 15.2 µM (inactive); in [2], 5.27 µM (inactive); in test [3], 6.62 µM (inactive); in test [4], 4.79 µM (inactive); in test [5], 3.19 µM (inactive); in test [6] it was 5.26 µM (inactive). In addition, the GI50 in [7] was 4.55 µM (inactive); in [9] it was 3.25 µM (inactive); in test [11] it was > 100 µM (inactive); in [12] it was 7.91 µM (inactive); in [13], 16.9 µM (inactive); in [14], 12.3 µM (inactive). Also, the GI50 was 6.71 µM (inactive) in test [15], 10.6 µM (inactive) in [16], 8.17 µM (inactive) in test [17] and 6.17 µM (inactive) in test [18].

The record behind these values is ChEMBL document CHEMBL1201862, “PubChem BioAssay data set” (2004).
